US11096923B2, “Pharmaceutical composition containing polymyxin B/trimethoprim based therapeutics” (University of Rochester, priority 2016, dated 2021)

Key:
P. aeruginosa [1] = assay: MIC of clinical P. aeruginosa ocular isolates (antibiotic susceptibility profiles); format: cell-based, Pseudomonas aeruginosa; conditions: for MIC: Pseudomonas aeruginosa, read-out: Minimum Inhibitory Concentration
From the text: A series of genotyping and biological assays were used as a preliminary means to evaluate the clonality of clinical P. aeruginosa isolates collected, as follows. Genomic DNA was purified from each isolate using Qiagen DNeasy kits (Hilden, Germany) and used as a template for polymerase chain reactions to detect the presence of the virulence factors exoS, exoY, exoU, exoT, and perV using previously published primers (Table 1). See Allewelt M, Coleman F T, Grout M, Priebe G P, Pier G B. Acquisition of expression of the Pseudomonas aeruginosa ExoU cytotoxin leads to increased bacterial virulence in a murine model of acute pneumonia and systemic spread. Infection and immunity 2000; 68:3998-4004, Lomholt J A, Poulsen K, Kilian M. Epidemic population structure of Pseudomonas aeruginosa: evidence for a clone that is pathogenic to the eye and that has a distinct combination of virulence factors. Infection and immunity 2001; 69, and Ledbetter E C, Mun J J, Kowbel D, Fleiszig S M. Pathogenic phenotype and genotype of Pseudomonas aeruginosa isolates from spontaneous canine ocular infections. Investigative ophthalmology & visual science 2009; 50. […] See Institute C. Performance Standards for Antimicrobial Susceptibility Testing: Twenty-fifth Informational Supplement. Each isolate's ability to form biofilms was quantified. To do so, wells of a polystyrene plate containing 72-hour established biofilms were washed with 0.8% NaCl to remove non adherent cells and stained with crystal violet. To quantify biofilm staining, plates were washed 3 times with H2O, stain was suspended in 30% glacial acetic acid and the optical density (OD600nm) of each well was determined using an automated plate reader, as previously described. See Jacobs A C, Blanchard C E, Catherman S C, Dunman P M, Murata Y. An ribonuclease T2 family protein modulates Acinetobacter baumannii abiotic surface colonization. PloS one 2014; 9.

P. aeruginosa [2] = assay: Fractional inhibitory concentration, checkerboard MIC; format: cell-based, Pseudomonas aeruginosa
S. aureus = assay: as above; format: cell-based, Staphylococcus aureus; conditions: S. aureus UAMS-1
S. aureus UAMS-1 = assay: Selleck library screen in presence of sub-inhibitory polymyxin B/trimethoprim; format: cell-based, Staphylococcus aureus; design: key: Growth (+); no growth (−); conditions: for S. aureus growth, 5 μM: drug 5 μM in presence of 1.2 μg ml^−1 polymyxin B/trimethoprim; for S. aureus growth, 50 μM: drug 50 μM in presence of 1.2 μg ml^−1 polymyxin B/trimethoprim
Protocol: (§1) To identify agents that potentiate the antimicrobial activity of polymyxin B/trimethoprim we first determined the highest concentration of the polymyxin B/trimethoprim combination that allowed growth of P. aeruginosa strain PAO1 and S. aureus strain UAMS-1.
(§2) For Selleck library screening, individual wells of 96-well microtiter plates containing 88 μl of fresh media were inoculated with approximately 10^5 CFUs of P. aeruginosa strain PAO1 or S. aureus UAMS-1. Next, 2 μl of polymyxin B/trimethoprim was added to a final concentration of 0.2 μg ml^−1 or 1.25 μg ml^−1 for PA01 and UAMS-1, respectively. Library members were then added at either 5 μM or 50 μM final concentration. Plates were incubated at 37° C. for 16 hours and hits were identified as wells with no visible growth.
To do so, 10^5 CFUs of S. aureus strain UAMS-1 were inoculated in individual wells of a microtiter plate supplemented with 1.2 μg ml^−1 of polymyxin B/trimethoprim, (0.25×MIC). Library members were added at low (5 μM) or high (50 μM) concentrations and then scored for agents that inhibited growth following overnight incubation. Such agents were expected to represent compounds that display antimicrobial activity on their own and/or that potentiate the antimicrobial activity of polymyxin B/trimethoprim.

P. aeruginosa PAO1 = assay: as above; format: cell-based, Pseudomonas aeruginosa; design: key: Growth (+); no growth (−); conditions: for P. aeruginosa growth, 5 μM: drug 5 μM in presence of 0.2 μg ml^−1 polymyxin B/trimethoprim; for P. aeruginosa growth, 50 μM: drug 50 μM in presence of 0.2 μg ml^−1 polymyxin B/trimethoprim
Protocol: as §1
as §2, with “growth. […]” for “growth.”

P. aeruginosa biofilm = system: P. aeruginosa biofilm; design: key: Killing (+) of established biofilms; conditions: established biofilms; adenylate kinase reporter; Blanchard et al., 2016; cited from earlier work
MRSA keratitis isolates = MRSA keratitis isolates collected between 1993 and 2012; cited from earlier work
[3] = P. aeruginosa ocular isolate RW01 (cornea)
[4] = P. aeruginosa ocular isolate RW02 (cornea)
[5] = P. aeruginosa ocular isolate RW03 (cornea)
[6] = P. aeruginosa ocular isolate RW04 (conjunctiva)
[7] = P. aeruginosa ocular isolate RW05 (cornea)
[8] = P. aeruginosa ocular isolate RW06 (cornea)
[9] = P. aeruginosa ocular isolate RW07 (cornea)

CC1(C)S[C@@H]2[C@H](NC(=O)[C@H](N)c3ccccc3)C(=O)N2[C@H]1C(=O)O [Ampicillin, ampicillin]
MIC (P. aeruginosa [1]; [3]): 50 µg/mL | MIC (P. aeruginosa [1]; [4]): 50 µg/mL | MIC (P. aeruginosa [1]; [5]): 50 µg/mL | MIC (P. aeruginosa [1]; [6]): 50 µg/mL | MIC (P. aeruginosa [1]; [7]): 100 µg/mL | MIC (P. aeruginosa [1]; [8]): 100 µg/mL | MIC (P. aeruginosa [1]; [9]): 50 µg/mL

N[C@@H]1CCCCN(c2c(F)cc3c(=O)c(C(=O)O)cn(C4CC4)c3c2Cl)C1 [Besifloxacin, besifloxacin]
MIC in combination (P. aeruginosa [2]; P. aeruginosa PAO1, PT combined with besifloxacin): 0.78 µg/mL | MIC (P. aeruginosa [2]; Pseudomonas aeruginosa, PAO1, P. aeruginosa PAO1): 1.56 µg/mL | MIC in combination (S. aureus; PT combined with besifloxacin): 0.06 µg/mL | MIC (S. aureus; Staphylococcus aureus): 0.12 µg/mL | S. aureus growth, 5 μM (S. aureus UAMS-1): − | S. aureus growth, 50 μM (S. aureus UAMS-1): − | P. aeruginosa growth, 5 μM (P. aeruginosa PAO1): − | P. aeruginosa growth, 50 μM (P. aeruginosa PAO1): − | P. aeruginosa biofilm AK Signal (P. aeruginosa biofilm): +

CO/N=C(\C(=O)N[C@@H]1C(=O)N2C(C(=O)O)=C(CSc3nc(=O)c(=O)[nH]n3C)CS[C@H]12)c1csc(N)n1 [Ceftriaxone, ceftriaxone]
MIC (P. aeruginosa [1]; [3]): 13 µg/mL | MIC (P. aeruginosa [1]; [4]): 26 µg/mL | MIC (P. aeruginosa [1]; [5]): 26 µg/mL | MIC (P. aeruginosa [1]; [6]): 26 µg/mL | MIC (P. aeruginosa [1]; [7]): 13 µg/mL | MIC (P. aeruginosa [1]; [8]): 52 µg/mL | MIC (P. aeruginosa [1]; [9]): 26 µg/mL

NC1CCN(c2c(F)cc3c(=O)c(C(=O)O)cn(C4CC4)c3c2Cl)C1 (stereo not shown) [Clinafloxacin, clinafloxacin]
S. aureus growth, 5 μM (S. aureus UAMS-1): − | S. aureus growth, 50 μM (S. aureus UAMS-1): − | P. aeruginosa growth, 5 μM (P. aeruginosa PAO1): − | P. aeruginosa growth, 50 μM (P. aeruginosa PAO1): − | P. aeruginosa biofilm AK Signal (P. aeruginosa biofilm): +

CN1C[C@@H]2C[C@H]1CN2c1cc2c(cc1F)c(=O)c(C(=O)O)cn2C1CC1 [Danofloxacin, danofloxacin]
S. aureus growth, 5 μM (S. aureus UAMS-1): − | S. aureus growth, 50 μM (S. aureus UAMS-1): − | P. aeruginosa growth, 5 μM (P. aeruginosa PAO1): − | P. aeruginosa growth, 50 μM (P. aeruginosa PAO1): − | P. aeruginosa biofilm AK Signal (P. aeruginosa biofilm): +

CCN1CCN(c2cc3c(cc2F)c(=O)c(C(=O)O)cn3C2CC2)CC1 [Enrofloxacin, enrofloxacin]
S. aureus growth, 5 μM (S. aureus UAMS-1): − | S. aureus growth, 50 μM (S. aureus UAMS-1): − | P. aeruginosa growth, 5 μM (P. aeruginosa PAO1): − | P. aeruginosa growth, 50 μM (P. aeruginosa PAO1): − | P. aeruginosa biofilm AK Signal (P. aeruginosa biofilm): +

C[C@H]1COc2c(N3CCN(C)CC3)c(F)cc3c(=O)c(C(=O)O)cn1c23 [Levofloxacin, levofloxacin]
S. aureus growth, 5 μM (S. aureus UAMS-1): + | S. aureus growth, 50 μM (S. aureus UAMS-1): − | P. aeruginosa growth, 5 μM (P. aeruginosa PAO1): − | P. aeruginosa growth, 50 μM (P. aeruginosa PAO1): −

CCn1cc(C(=O)O)c(=O)c2cc(F)c(N3CCNC(C)C3)c(F)c21 (stereo not shown) [Lomefloxacin, lomefloxacin]
S. aureus growth, 5 μM (S. aureus UAMS-1): − | S. aureus growth, 50 μM (S. aureus UAMS-1): − | P. aeruginosa growth, 5 μM (P. aeruginosa PAO1): − | P. aeruginosa growth, 50 μM (P. aeruginosa PAO1): − | P. aeruginosa biofilm AK Signal (P. aeruginosa biofilm): +

CC1CCc2c(N3CCC(O)CC3)c(F)cc3c(=O)c(C(=O)O)cn1c23 (stereo not shown) [Nadifloxacin, nadifloxacin]
S. aureus growth, 5 μM (S. aureus UAMS-1): − | S. aureus growth, 50 μM (S. aureus UAMS-1): − | P. aeruginosa growth, 5 μM (P. aeruginosa PAO1): − | P. aeruginosa growth, 50 μM (P. aeruginosa PAO1): − | P. aeruginosa biofilm AK Signal (P. aeruginosa biofilm): +

CCn1cc(C(=O)O)c(=O)c2cc(F)c(N3CCN(C)CC3)cc21 [Pefloxacin, pefloxacin]
S. aureus growth, 5 μM (S. aureus UAMS-1): − | S. aureus growth, 50 μM (S. aureus UAMS-1): − | P. aeruginosa growth, 5 μM (P. aeruginosa PAO1): − | P. aeruginosa growth, 50 μM (P. aeruginosa PAO1): − | P. aeruginosa biofilm AK Signal (P. aeruginosa biofilm): +

CO[C@H]1/C=C/O[C@@]2(C)Oc3c(C)c(O)c4c(c3C2=O)C2=NC3(CCN(CC(C)C)CC3)NC2=C(NC(=O)/C(C)=C\C=C\[C@H](C)[C@H](O)[C@@H](C)[C@@H](O)[C@@H](C)[C@H](OC(C)=O)[C@@H]1C)C4=O [Rifabutin, rifabutin]
S. aureus growth, 5 μM (S. aureus UAMS-1): − | S. aureus growth, 50 μM (S. aureus UAMS-1): − | P. aeruginosa growth, 5 μM (P. aeruginosa PAO1): − | P. aeruginosa growth, 50 μM (P. aeruginosa PAO1): − | P. aeruginosa biofilm AK Signal (P. aeruginosa biofilm): +

CO[C@H]1/C=C/O[C@@]2(C)Oc3c(C)c(O)c4c(O)c(c(/C=N/N5CCN(C6CCCC6)CC5)c(O)c4c3C2=O)NC(=O)/C(C)=C\C=C\[C@H](C)[C@H](O)[C@@H](C)[C@@H](O)[C@@H](C)[C@H](OC(C)=O)[C@@H]1C [Rifapentine, rifapentine]
S. aureus growth, 5 μM (S. aureus UAMS-1): − | S. aureus growth, 50 μM (S. aureus UAMS-1): − | P. aeruginosa growth, 5 μM (P. aeruginosa PAO1): − | P. aeruginosa growth, 50 μM (P. aeruginosa PAO1): − | P. aeruginosa biofilm AK Signal (P. aeruginosa biofilm): +

CO[C@H]1/C=C/O[C@@]2(C)Oc3c(C)c(O)c4c(O)c(c5c(nc6cc(C)ccn65)c4c3C2=O)NC(=O)/C(C)=C\C=C\[C@H](C)[C@H](O)[C@@H](C)[C@@H](O)[C@@H](C)[C@H](OC(C)=O)[C@@H]1C [Rifaximin, rifaximin]
S. aureus growth, 5 μM (S. aureus UAMS-1): − | S. aureus growth, 50 μM (S. aureus UAMS-1): − | P. aeruginosa growth, 5 μM (P. aeruginosa PAO1): − | P. aeruginosa growth, 50 μM (P. aeruginosa PAO1): − | P. aeruginosa biofilm AK Signal (P. aeruginosa biofilm): +

O=C(O)c1cn(-c2ccc(F)cc2)c2cc(N3CCNCC3)c(F)cc2c1=O [Sarafloxacin, sarafloxacin]
S. aureus growth, 5 μM (S. aureus UAMS-1): − | S. aureus growth, 50 μM (S. aureus UAMS-1): − | P. aeruginosa growth, 5 μM (P. aeruginosa PAO1): − | P. aeruginosa growth, 50 μM (P. aeruginosa PAO1): − | P. aeruginosa biofilm AK Signal (P. aeruginosa biofilm): +

N[C@@H]1CN(c2c(F)cc3c(=O)c(C(=O)O)cn([C@@H]4C[C@@H]4F)c3c2Cl)CC12CC2 [Sitafloxacin, sitafloxacin]
S. aureus growth, 5 μM (S. aureus UAMS-1): − | S. aureus growth, 50 μM (S. aureus UAMS-1): − | P. aeruginosa growth, 5 μM (P. aeruginosa PAO1): − | P. aeruginosa growth, 50 μM (P. aeruginosa PAO1): − | P. aeruginosa biofilm AK Signal (P. aeruginosa biofilm): +

C[C@@H]1CN(c2c(F)c(N)c3c(=O)c(C(=O)O)cn(C4CC4)c3c2F)C[C@H](C)N1 [Sparfloxacin, sparfloxacin]
S. aureus growth, 5 μM (S. aureus UAMS-1): − | S. aureus growth, 50 μM (S. aureus UAMS-1): − | P. aeruginosa growth, 5 μM (P. aeruginosa PAO1): − | P. aeruginosa growth, 50 μM (P. aeruginosa PAO1): − | P. aeruginosa biofilm AK Signal (P. aeruginosa biofilm): +

COc1c(N2CCNC(C)C2)c(F)cc2c(=O)c(C(=O)O)cn(C3CC3)c12 (stereo not shown) [gatifloxacin]
isolates displaying resistance (MRSA keratitis isolates): ~45.9%

Cc1cc(NS(=O)(=O)c2ccc(N)cc2)no1 [sulfamethoxazole]
isolates displaying resistance (MRSA keratitis isolates): 5.7%

gentamycin
Minimum Inhibitory Concentration (P. aeruginosa [1]; [3]): 0.24 µg/mL | Minimum Inhibitory Concentration (P. aeruginosa [1]; [4]): 0.24 µg/mL | Minimum Inhibitory Concentration (P. aeruginosa [1]; [5]): 0.12 µg/mL | Minimum Inhibitory Concentration (P. aeruginosa [1]; [6]): 0.48 µg/mL | Minimum Inhibitory Concentration (P. aeruginosa [1]; [7]): 0.48 µg/mL | Minimum Inhibitory Concentration (P. aeruginosa [1]; [8]): 0.48 µg/mL | Minimum Inhibitory Concentration (P. aeruginosa [1]; [9]): 0.24 µg/mL

neomycin
Minimum Inhibitory Concentration (P. aeruginosa [1]; [3]): 9.8 µg/mL | Minimum Inhibitory Concentration (P. aeruginosa [1]; [4]): 9.8 µg/mL | Minimum Inhibitory Concentration (P. aeruginosa [1]; [5]): 9.8 µg/mL | Minimum Inhibitory Concentration (P. aeruginosa [1]; [6]): 19.6 µg/mL | Minimum Inhibitory Concentration (P. aeruginosa [1]; [7]): 1 µg/mL | Minimum Inhibitory Concentration (P. aeruginosa [1]; [8]): 9.8 µg/mL | Minimum Inhibitory Concentration (P. aeruginosa [1]; [9]): 1 µg/mL
